We go through three molecules from article PMC4961458 (eLife, 2016).

The subject of test [1] is TamR1 tumors. The arrangement: method as in Lai et al., 2015. Particulars: 0.72 mg 60 day release E2 pellets; GDC-0810 p.o. 100 mg/kg/day; fulvestrant SC 200 mg/kg 3x/week; ref Lai et al., 2015; cited from earlier work.
Test [2] relates to Doxycycline-inducible MCF7 cells over-expressing ER (ER.WT). Nature of the test: Cell viability, doxycycline-inducible ER over-expressing MCF7 cells. The class given is cell-based. Particulars: Homo sapiens, MCF7, 168 h, 7 days; for IC50: 0.1 nM E2, 10 ng/ml doxycycline; for EC50: estrogen-depleted medium, 10 ng/ml doxycycline, read-out: Cell viability EC50, ER.WT -E2.
The test system of test [3] is Doxycycline-inducible MCF7 cells (Vector). In words: Cell viability, doxycycline-inducible MCF7 cells, vector control. The class given is cell-based. Particulars: Homo sapiens, MCF7, 168 h, 7 days; for IC50: 0.1 nM E2, 10 ng/ml doxycycline; for EC50: estrogen-depleted medium, 10 ng/ml doxycycline, read-out: Cell viability EC50, Vector -E2.
In test [4] the target is T1, PR-A (Homo sapiens, UniProt P06401).
T1 sequence (P06401 1-769 isoform P06401-2): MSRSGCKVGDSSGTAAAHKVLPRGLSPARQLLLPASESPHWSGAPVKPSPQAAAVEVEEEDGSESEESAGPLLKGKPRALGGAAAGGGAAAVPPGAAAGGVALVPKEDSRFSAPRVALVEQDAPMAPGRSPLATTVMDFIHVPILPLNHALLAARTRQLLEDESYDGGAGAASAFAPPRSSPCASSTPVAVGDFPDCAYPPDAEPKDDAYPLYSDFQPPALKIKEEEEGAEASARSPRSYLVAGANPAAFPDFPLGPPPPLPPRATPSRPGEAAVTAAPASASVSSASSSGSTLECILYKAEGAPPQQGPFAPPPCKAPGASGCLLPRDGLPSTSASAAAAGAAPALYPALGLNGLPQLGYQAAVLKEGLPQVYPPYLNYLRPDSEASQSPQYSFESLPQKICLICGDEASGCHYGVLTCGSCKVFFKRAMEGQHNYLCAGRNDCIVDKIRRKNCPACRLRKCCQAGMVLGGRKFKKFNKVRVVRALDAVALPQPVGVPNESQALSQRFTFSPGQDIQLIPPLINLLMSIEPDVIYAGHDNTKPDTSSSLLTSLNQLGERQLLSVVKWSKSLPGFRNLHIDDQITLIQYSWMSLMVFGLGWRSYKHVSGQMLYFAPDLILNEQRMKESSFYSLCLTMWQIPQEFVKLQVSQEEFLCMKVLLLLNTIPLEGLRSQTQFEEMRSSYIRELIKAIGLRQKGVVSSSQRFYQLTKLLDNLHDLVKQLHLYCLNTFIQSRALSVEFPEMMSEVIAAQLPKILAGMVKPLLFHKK
In words: PR-A transcriptional reporter assay, agonist mode (HEPG2 cells). The class given is cell-based. On the set-up: subcloning full-length PRa into pCMX; expressed in transfected cells; host or cells: HEPG2. Particulars: % of maximal R5020-stimulated activity. The protocol: Transcriptional assays were performed by seeding 100 μL of cells at a density of 250,000 cells/mL into 96-well cell culture plates in RPMI 1640 supplemented with 5% charcoal-stripped serum and allowed to attach overnight. […] Triplicate transfections were performed using 418 ng reporter vector (2X PRE-Luciferase for PR-A and PR-B, MMTV-Luciferase for MR), 50 ng CMVpRL (normalization vector), 10 ng NHR expression vector (CMX-PR-A, pCDNA-PR-B or 6R-MR), and 0.7 μL lipofectin. […] The final agonist concentration used in the antagonist assays was 1 nM. Following 24 hr incubation, the medium was removed and the cells were lysed in 40 μL of lysis buffer (25 mM Tris Phosphate, 2 mM CDTA, 10% Glycerol, 0.5% Triton X-100, 2 mM DTT). Firefly luciferase activity was measured immediately following the addition of 40 μL luciferase buffer (20 mM tricine, 0.1 mM EDTA, 1.07 mM (MgCO3)4 Mg(OH)2· 5H2O, 2.67 mM MgSO4, 33.3 mM DTT, 270 μM Coenzyme A, 470 μM luciferin, 530 μM ATP).

The target of test [5] is T2, GR (Homo sapiens, UniProt P04150).
T2 sequence (P04150 1-777): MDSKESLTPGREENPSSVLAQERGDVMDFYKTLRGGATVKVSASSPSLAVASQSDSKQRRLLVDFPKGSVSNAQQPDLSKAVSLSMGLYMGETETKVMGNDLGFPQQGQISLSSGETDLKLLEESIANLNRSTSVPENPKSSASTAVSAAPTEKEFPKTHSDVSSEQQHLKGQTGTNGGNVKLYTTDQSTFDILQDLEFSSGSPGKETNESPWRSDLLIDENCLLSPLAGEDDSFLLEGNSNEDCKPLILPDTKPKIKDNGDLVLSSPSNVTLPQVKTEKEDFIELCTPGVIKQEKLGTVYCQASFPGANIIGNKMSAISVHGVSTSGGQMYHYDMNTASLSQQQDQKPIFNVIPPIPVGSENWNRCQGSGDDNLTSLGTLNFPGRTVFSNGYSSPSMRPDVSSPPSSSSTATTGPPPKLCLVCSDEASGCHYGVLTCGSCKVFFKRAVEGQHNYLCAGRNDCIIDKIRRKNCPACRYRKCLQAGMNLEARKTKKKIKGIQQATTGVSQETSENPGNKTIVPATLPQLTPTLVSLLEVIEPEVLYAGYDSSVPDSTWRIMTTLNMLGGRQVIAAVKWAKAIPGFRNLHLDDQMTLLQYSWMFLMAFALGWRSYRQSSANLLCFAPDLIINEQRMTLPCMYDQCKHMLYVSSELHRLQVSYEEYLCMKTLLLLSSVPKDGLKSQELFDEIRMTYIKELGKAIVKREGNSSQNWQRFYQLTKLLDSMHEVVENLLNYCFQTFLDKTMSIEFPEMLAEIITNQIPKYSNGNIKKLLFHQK
In words: GR transcriptional reporter assay, agonist mode (CV1 cells). The test is classed as cell-based. Conditions: CV-1; % of maximal dexamethasone-stimulated activity. The protocol:
CV1 cells were maintained in MEM supplemented with 10% FBS. Transcriptional assays were performed by seeding 12 mL of cells at a density of 250,000 cells/mL into a T-75 cell culture flask in MEM supplemented with 5% charcoal-stripped serum and allowed to attach overnight. Cells were transiently transfected using FuGENE 6 (Roche Applied Science). […] Transfected cells were incubated overnight then split into four 96-well tissue culture plates and incubated for 4 hr followed by compound addition. […] The final agonist concentration used in the antagonist assays was 10 nM.

With `C[C@]12CC[C@@H]3c4ccc(O)cc4C[C@@H](CCCCCCCCC[S+]([O-])CCCC(F)(F)C(F)(F)F)[C@H]3[C@@H]1CC[C@@H]2O` (some centres unmarked) [Fulvestrant], in test [1], the “Tumor growth response, TamR1 xenograft, high E2” value is given as “only modest tumor growth inhibition”. In test [2], the IC50 was 11 nM and the EC50 stood at 1.2 nM. Besides, in test [3], the IC50 is 7.2 nM and the EC50 was 0.8 nM.

Take `CC/C(=C(/c1ccc(/C=C/C(=O)O)cc1)c1ccc2[nH]ncc2c1)c1ccc(F)cc1Cl` [GDC-0810]: in test [1], the “Tumor growth response, TamR1 xenograft, high E2” value is listed as “induced tumor regressions”. Moreover, the maximal effect (Emax) in test [4] was determined as 6.68 ± 7.97%; in test [5] it was 1.78 ± 1.21%. Besides, the concentration for half-maximal inhibition (IC50) in test [2] was 19 nM; in test [3] it was 15 nM. Moreover, the EC50 stood at 0.8 nM in test [2] and 1 nM in test [3].

For `CC/C(=C(\c1ccc(O)cc1)c1ccc(OCCN(C)C)cc1)c1ccccc1` [4-OH Tam, 4-hydroxytamoxifen], the maximum response (Emax) in test [4] worked out at 0.04 ± 0.06%; in test [5] it was 1.99 ± 1.52%.
